Assays:
[1] = test system: crabgrass, large; assay: Test A preemergence; type: in vivo, Digitaria sanguinalis; settings: 0 to 100 scale (0 no effect, 100 complete control)
Outline: (§1)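 Test chemicals, formulated in a surfactant-containing non-phytotoxic solvent mixture, are applied either as a directed soil spray to newly planted seeds or as a postemergence application to plants at the one- to two-leaf stage (2–10 cm). All plants grow in a loam soil and sand blend.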

[2] = test system: barnyardgrass; assay: Test A postemergence; type: in vivo, Echinochloa crus-galli; settings: 0 to 100 scale (0 no effect, 100 complete control), approx. 10 d
Outline: as §1

[3] = test system: velvetleaf; assay: Test A preemergence; type: in vivo, Abutilon theophrasti; settings: 0 to 100 scale (0 no effect, 100 complete control)
Outline: as §1

[4] = test system: morningglory; assay: Test A preemergence; type: in vivo, Ipomoea spp.; settings: 0 to 100 scale (0 no effect, 100 complete control)
Outline: as §1

[5] = test system: barnyardgrass; assay: Test C flooded paddy test; type: in vivo, Echinochloa crus-galli; settings: Flood, applied to paddy water, rating after 13 to 15 d
Description: (§2) At time of treatment, test pots were flooded to 3 cm above the soil surface, treated by application of test compounds directly to the paddy water, and then maintained at that water depth for the duration of the test. Treated plants and controls were maintained in a greenhouse for 13 to 15 d, after which time all species were compared to controls and visually evaluated. […] A dash (-) response means no test result.

[6] = test system: morningglory; assay: Test A postemergence; type: in vivo, Ipomoea spp.; settings: 0 to 100 scale (0 no effect, 100 complete control), approx. 10 d
Outline: as §1

[7] = test system: barnyardgrass; assay: Test A preemergence; type: in vivo, Echinochloa crus-galli; settings: 0 to 100 scale (0 no effect, 100 complete control)
Outline: as §1

[8] = test system: foxtail, giant; assay: Test A postemergence; type: in vivo, Setaria faberii; settings: 0 to 100 scale (0 no effect, 100 complete control), approx. 10 d
Outline: as §1

[9] = test system: pigweed; assay: Test A postemergence; type: in vivo, Amaranthus retroflexus; settings: 0 to 100 scale (0 no effect, 100 complete control), approx. 10 d
Outline: as §1

[10] = test system: wheat; assay: Test A preemergence; type: in vivo, Triticum aestivum; settings: 0 to 100 scale (0 no effect, 100 complete control)
Outline: as §1

[11] = test system: crabgrass, large; assay: Test A postemergence; type: in vivo, Digitaria sanguinalis; settings: 0 to 100 scale (0 no effect, 100 complete control), approx. 10 d
Outline: as §1

[12] = test system: pigweed; assay: Test A preemergence; type: in vivo, Amaranthus retroflexus; settings: 0 to 100 scale (0 no effect, 100 complete control)
Outline: as §1

[13] = test system: corn; assay: Test A postemergence; type: in vivo, Zea mays; settings: 0 to 100 scale (0 no effect, 100 complete control), approx. 10 d
Outline: as §1

[14] = test system: rice; assay: Test C flooded paddy test; type: in vivo, Oryza sativa; settings: Flood, applied to paddy water, rating after 13 to 15 d
Description: as §2

[15] = test system: wheat; assay: Test A postemergence; type: in vivo, Triticum aestivum; settings: 0 to 100 scale (0 no effect, 100 complete control), approx. 10 d
Outline: as §1

[16] = test system: ducksalad; assay: Test C flooded paddy test; type: in vivo, Heteranthera limosa; settings: Flood, applied to paddy water, rating after 13 to 15 d
Description: as §2

[17] = test system: sedge, umbrella; assay: Test C flooded paddy test; type: in vivo, Cyperus difformis; settings: Flood, applied to paddy water, rating after 13 to 15 d
Description: as §2

[18] = test system: velvetleaf; assay: Test A postemergence; type: in vivo, Abutilon theophrasti; settings: 0 to 100 scale (0 no effect, 100 complete control), approx. 10 d
Outline: as §1

[19] = test system: corn; assay: Test A preemergence; type: in vivo, Zea mays; settings: 0 to 100 scale (0 no effect, 100 complete control)
Outline: as §1

[20] = test system: foxtail, giant; assay: Test A preemergence; type: in vivo, Setaria faberii; settings: 0 to 100 scale (0 no effect, 100 complete control)
Outline: as §1

[21] = test system: ducksalad; assay: Test B flooded paddy test; type: in vivo, Heteranthera limosa; settings: 250 g ai/ha, applied to paddy water at 2-leaf stage, visual rating after 13 to 15 d, scale 0 (no effect) to 100 (complete control)
Outline: (§3)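 Pots were flooded to 3 cm above the soil at treatment, and compounds were applied directly into the paddy water. That depth was held throughout. After 13 to 15 d in a greenhouse, plants were rated visually against untreated controls.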

[22] = test system: barnyardgrass; assay: Test B flooded paddy test; type: in vivo, Echinochloa crus-galli; settings: 250 g ai/ha, applied to paddy water at 2-leaf stage, visual rating after 13 to 15 d, scale 0 (no effect) to 100 (complete control)
Outline: as §3

[23] = test system: rice; assay: Test B flooded paddy test; type: in vivo, Oryza sativa; settings: 250 g ai/ha, applied to paddy water at 2-leaf stage, visual rating after 13 to 15 d, scale 0 (no effect) to 100 (complete control)
Outline: as §3

[24] = test system: sedge, umbrella; assay: Test B flooded paddy test; type: in vivo, Cyperus difformis; settings: 250 g ai/ha, applied to paddy water at 2-leaf stage, visual rating after 13 to 15 d, scale 0 (no effect) to 100 (complete control)
Outline: as §3

Cc1nc(-c2ccc(C(F)(F)F)cc2)nn1Cc1cccc(OC(F)(F)F)c1 [Compound 4]
60: Plant response rating, Morningglory ([6]; 500 g ai/ha)
10: Plant response rating, Barnyardgrass ([2]; 500 g ai/ha) | Plant response rating, Morningglory ([6]; 125 g ai/ha) | Plant response rating, Foxtail, Giant ([8]; 125 g ai/ha) | Plant response rating, Foxtail, Giant ([8]; 500 g ai/ha) | Plant response rating, Crabgrass, Large ([11]; 125 g ai/ha) | Plant response rating, Crabgrass, Large ([11]; 500 g ai/ha) | Plant response rating, Corn ([13]; 125 g ai/ha) | Plant response rating, Corn ([13]; 500 g ai/ha) | Plant response rating, Velvetleaf ([18]; 500 g ai/ha)
40: Plant response rating, Pigweed ([9]; 125 g ai/ha)
80: Plant response rating, Pigweed ([9]; 500 g ai/ha)
0: Plant response rating, Crabgrass, Large ([1]; 125 g ai/ha) | Plant response rating, Crabgrass, Large ([1]; 500 g ai/ha, approx. 10 d) | Plant response rating, Barnyardgrass ([2]; 125 g ai/ha) | Plant response rating, Velvetleaf ([3]; 125 g ai/ha) | Plant response rating, Velvetleaf ([3]; 500 g ai/ha, approx. 10 d) | Plant response rating, Morningglory ([4]; 125 g ai/ha) | Plant response rating, Morningglory ([4]; 500 g ai/ha, approx. 10 d) | Barnyardgrass plant response rating (0 to 100) ([5]; 31 g ai/ha) | Barnyardgrass plant response rating (0 to 100) ([5]; 62 g ai/ha) | Barnyardgrass plant response rating (0 to 100) ([5]; 125 g ai/ha) | Barnyardgrass plant response rating (0 to 100) ([5]; 250 g ai/ha) | Plant response rating, Barnyardgrass ([7]; 125 g ai/ha) | Plant response rating, Barnyardgrass ([7]; 500 g ai/ha, approx. 10 d) | Plant response rating, Wheat ([10]; 125 g ai/ha) | Plant response rating, Wheat ([10]; 500 g ai/ha, approx. 10 d) | Plant response rating, Pigweed ([12]; 125 g ai/ha) | Plant response rating, Pigweed ([12]; 500 g ai/ha, approx. 10 d) | Rice plant response rating (0 to 100) ([14]; 31 g ai/ha) | Rice plant response rating (0 to 100) ([14]; 62 g ai/ha) | Rice plant response rating (0 to 100) ([14]; 125 g ai/ha) | Rice plant response rating (0 to 100) ([14]; 250 g ai/ha) | Plant response rating, Wheat ([15]; 125 g ai/ha) | Plant response rating, Wheat ([15]; 500 g ai/ha) | Ducksalad plant response rating (0 to 100) ([16]; 31 g ai/ha) | Ducksalad plant response rating (0 to 100) ([16]; 62 g ai/ha) | Ducksalad plant response rating (0 to 100) ([16]; 125 g ai/ha) | Ducksalad plant response rating (0 to 100) ([16]; 250 g ai/ha) | Sedge, Umbrella plant response rating (0 to 100) ([17]; 31 g ai/ha) | Sedge, Umbrella plant response rating (0 to 100) ([17]; 62 g ai/ha) | Sedge, Umbrella plant response rating (0 to 100) ([17]; 125 g ai/ha) | Sedge, Umbrella plant response rating (0 to 100) ([17]; 250 g ai/ha) | Plant response rating, Velvetleaf ([18]; 125 g ai/ha) | Plant response rating, Corn ([19]; 125 g ai/ha) | Plant response rating, Corn ([19]; 500 g ai/ha, approx. 10 d) | Plant response rating, Foxtail, Giant ([20]; 125 g ai/ha) | Plant response rating, Foxtail, Giant ([20]; 500 g ai/ha, approx. 10 d)

CCCc1nc(-c2ccc(F)c(F)c2)nn1Cc1ccnc(C(F)(F)F)c1 [Compound 23]
75: Ducksalad plant response rating (0 to 100) ([16]; 125 g ai/ha)
0: Barnyardgrass plant response rating (0 to 100) ([5]; 31 g ai/ha) | Rice plant response rating (0 to 100) ([14]; 31 g ai/ha) | Rice plant response rating (0 to 100) ([14]; 62 g ai/ha) | Rice plant response rating (0 to 100) ([14]; 125 g ai/ha) | Rice plant response rating (0 to 100) ([14]; 250 g ai/ha)
30: Plant response rating, Velvetleaf ([3]; 125 g ai/ha) | Plant response rating, Corn ([13]; 125 g ai/ha) | Plant response rating, Wheat ([15]; 125 g ai/ha) | Ducksalad plant response rating (0 to 100) ([16]; 31 g ai/ha) | Plant response rating, Corn ([19]; 500 g ai/ha, approx. 10 d)
95: Plant response rating, Sedge, Umbrella, Flood [24] | Sedge, Umbrella plant response rating (0 to 100) ([17]; 250 g ai/ha)
70: Plant response rating, Barnyardgrass ([2]; 500 g ai/ha) | Plant response rating, Foxtail, Giant ([8]; 125 g ai/ha) | Plant response rating, Crabgrass, Large ([11]; 125 g ai/ha) | Plant response rating, Velvetleaf ([18]; 125 g ai/ha)
90: Plant response rating, Ducksalad, Flood [21] | Plant response rating, Morningglory ([6]; 500 g ai/ha) | Plant response rating, Foxtail, Giant ([8]; 500 g ai/ha) | Plant response rating, Barnyardgrass, Flood [22] | Plant response rating, Crabgrass, Large ([11]; 500 g ai/ha) | Sedge, Umbrella plant response rating (0 to 100) ([17]; 125 g ai/ha)
85: Sedge, Umbrella plant response rating (0 to 100) ([17]; 62 g ai/ha)
25: Plant response rating, Rice, Flood [23]
100: Plant response rating, Crabgrass, Large ([1]; 125 g ai/ha) | Plant response rating, Crabgrass, Large ([1]; 500 g ai/ha, approx. 10 d) | Plant response rating, Barnyardgrass ([7]; 500 g ai/ha, approx. 10 d) | Plant response rating, Pigweed ([9]; 125 g ai/ha) | Plant response rating, Pigweed ([9]; 500 g ai/ha) | Plant response rating, Pigweed ([12]; 125 g ai/ha) | Plant response rating, Pigweed ([12]; 500 g ai/ha, approx. 10 d) | Plant response rating, Velvetleaf ([18]; 500 g ai/ha) | Plant response rating, Foxtail, Giant ([20]; 125 g ai/ha) | Plant response rating, Foxtail, Giant ([20]; 500 g ai/ha, approx. 10 d)
80: Plant response rating, Velvetleaf ([3]; 500 g ai/ha, approx. 10 d) | Plant response rating, Morningglory ([4]; 500 g ai/ha, approx. 10 d) | Ducksalad plant response rating (0 to 100) ([16]; 250 g ai/ha) | Sedge, Umbrella plant response rating (0 to 100) ([17]; 31 g ai/ha)
10: Barnyardgrass plant response rating (0 to 100) ([5]; 62 g ai/ha)
40: Plant response rating, Wheat ([10]; 500 g ai/ha, approx. 10 d)
60: Plant response rating, Corn ([13]; 500 g ai/ha)
20: Barnyardgrass plant response rating (0 to 100) ([5]; 250 g ai/ha) | Plant response rating, Wheat ([10]; 125 g ai/ha) | Plant response rating, Corn ([19]; 125 g ai/ha)
45: Ducksalad plant response rating (0 to 100) ([16]; 62 g ai/ha)
15: Barnyardgrass plant response rating (0 to 100) ([5]; 125 g ai/ha)
50: Plant response rating, Barnyardgrass ([2]; 125 g ai/ha) | Plant response rating, Morningglory ([4]; 125 g ai/ha) | Plant response rating, Morningglory ([6]; 125 g ai/ha) | Plant response rating, Barnyardgrass ([7]; 125 g ai/ha) | Plant response rating, Wheat ([15]; 500 g ai/ha)

Reference: US10681909B2, “Herbicidal triazoles” (FMC Corporation, priority 2014, dated 2020)
